Laboratory results from ChEMBL document CHEMBL3217526, “Bioguided discovery and pharmacophore modeling of the mycotoxic indole diterpene alkaloids penitrems as breast cancer proliferation, migration, and invasion inhibitors” (Medchemcomm, 2013).
Activity calls are given as the source filed them. No cut-off for these calls is given here.

Tests used:
[1] = Cytotoxicity against human EKVX cells assessed as growth inhibition at 10 uM; type: functional; settings: read-out: GI
Malme-3M = test: Cytotoxicity against human MALME-3M cells assessed as growth inhibition at 10 uM; type: functional; settings: read-out: GI
Caenorhabditis elegans [2] = test: Toxicity in L1 stage Caenorhabditis elegans N2 assessed as viability and reproduction at 10 uM; type: organism-based; settings: in vivo
[3] = Cytotoxicity against human OVCAR4 cells assessed as growth inhibition at 10 uM; type: functional; settings: OVCAR-4, read-out: GI
[4] = Cytotoxicity against human UO31 cells assessed as growth inhibition at 10 uM; type: functional; settings: UO-31, read-out: GI
SK-MEL-2 = test: Cytotoxicity against human SK-MEL-2 cells assessed as growth inhibition at 10 uM; type: functional; settings: read-out: GI
[5] = Cytotoxicity against human Hs578T cells assessed as growth inhibition at 10 uM; type: functional; settings: Hs-578T, read-out: GI
MDA-MB-231 [6] = test: Cytotoxicity against human MDA-MB-231 cells assessed as growth inhibition at 10 uM; type: functional; settings: read-out: GI
ACHN = test: Cytotoxicity against human ACHN cells assessed as growth inhibition at 10 uM; type: functional; settings: read-out: GI
MCF7 [7] = test: Antiproliferative activity against human MCF7 cells after 72 hrs by MTT assay; type: functional, cell-based; settings: MCF7, 72 h
K562 = test: Cytotoxicity against human K562 cells assessed as growth inhibition at 10 uM; type: functional; settings: read-out: GI
RXF 393 = test: Cytotoxicity against human RXF393 cells assessed as growth inhibition at 10 uM; type: functional; settings: read-out: GI
SW-620 = test: Cytotoxicity against human SW620 cells assessed as growth inhibition at 10 uM; type: functional; settings: read-out: GI
HT-29 = test: Cytotoxicity against human HT-29 cells assessed as growth inhibition at 10 uM; type: functional; settings: read-out: GI
SNB-19 = test: Cytotoxicity against human SNB19 cells assessed as growth inhibition at 10 uM; type: functional; settings: read-out: GI
HCC 2998 = test: Cytotoxicity against human HCC2998 cells assessed as growth inhibition at 10 uM; type: functional; settings: read-out: GI
[8] = Cytotoxicity against human NCI-ADR-RES cells assessed as growth inhibition at 10 uM; type: functional; settings: read-out: GI
MCF7 [9] = test: Cytotoxicity against human MCF7 cells assessed as growth inhibition at 10 uM; type: functional; settings: read-out: GI
HL-60(TB) = test: Cytotoxicity against human HL-60(TB) cells assessed as growth inhibition at 10 uM; type: functional; settings: read-out: GI
U-251 = test: Cytotoxicity against human U251 cells assessed as growth inhibition at 10 uM; type: functional; settings: read-out: GI
[10] = Cytotoxicity against human OVCAR5 cells assessed as growth inhibition at 10 uM; type: functional; settings: OVCAR-5, read-out: GI
T47D = test: Cytotoxicity against human T47D cells assessed as growth inhibition at 10 uM; type: functional; settings: read-out: GI
COLO 205 = test: Cytotoxicity against human COLO205 cells assessed as growth inhibition at 10 uM; type: functional; settings: read-out: GI
CAKI-1 = test: Cytotoxicity against human CAKI-1 cells assessed as growth inhibition at 10 uM; type: functional; settings: read-out: GI
[11] = Cytotoxicity against human UACC257 cells assessed as growth inhibition at 10 uM; type: functional; settings: UACC-257, read-out: GI
SK-MEL-28 = test: Cytotoxicity against human SK-MEL-28 cells assessed as growth inhibition at 10 uM; type: functional; settings: read-out: GI
NCI-H522 = test: Cytotoxicity against human NCI-H522 cells assessed as growth inhibition at 10 uM; type: functional; settings: read-out: GI
SK-MEL-5 = test: Cytotoxicity against human SK-MEL-5 cells assessed as growth inhibition at 10 uM; type: functional; settings: read-out: GI
IGROV-1 = test: Cytotoxicity against human IGROV1 cells assessed as growth inhibition at 10 uM; type: functional; settings: read-out: GI
SN12C = test: Cytotoxicity against human SN12C cells assessed as growth inhibition at 10 uM; type: functional; settings: read-out: GI
[12] = Cytotoxicity against human UACC62 cells assessed as growth inhibition at 10 uM; type: functional; settings: UACC-62, read-out: GI
MDA-MB-231 [13] = test: Antimigratory activity in human MDA-MB-231 cells after 24 hrs by wound healing assay; type: functional, cell-based; settings: MDA-MB-231, 24 h
LOX IMVI = test: Cytotoxicity against human LOXIMVI cells assessed as growth inhibition at 10 uM; type: functional; settings: read-out: GI
RPMI-8226 = test: Cytotoxicity against human RPMI8226 cells assessed as growth inhibition at 10 uM; type: functional; settings: read-out: GI
BT-549 = test: Cytotoxicity against human BT549 cells assessed as growth inhibition at 10 uM; type: functional; settings: read-out: GI
CCRF-CEM = test: Cytotoxicity against human CCRF-CEM cells assessed as growth inhibition at 10 uM; type: functional; settings: read-out: GI
NCI-H226 = test: Cytotoxicity against human NCI-H226 cells assessed as growth inhibition at 10 uM; type: functional; settings: read-out: GI
NCI-H322M = test: Cytotoxicity against human NCI-H322M cells assessed as growth inhibition at 10 uM; type: functional; settings: read-out: GI
MDA-MB-468 = test: Cytotoxicity against human MDA-MB-468 cells assessed as growth inhibition at 10 uM; type: functional; settings: read-out: GI
A549 = test: Cytotoxicity against human A549 cells assessed as growth inhibition at 10 uM; type: functional; settings: read-out: GI
DU-145 = test: Cytotoxicity against human DU145 cells assessed as growth inhibition at 10 uM; type: functional; settings: read-out: GI
MOLT-4 = test: Cytotoxicity against human MOLT4 cells assessed as growth inhibition at 10 uM; type: functional; settings: read-out: GI
SF-268 = test: Cytotoxicity against human SF268 cells assessed as growth inhibition at 10 uM; type: functional; settings: read-out: GI
SK-OV-3 = test: Cytotoxicity against human SKOV3 cells assessed as growth inhibition at 10 uM; type: functional; settings: read-out: GI
HCT-116 = test: Cytotoxicity against human HCT116 cells assessed as growth inhibition at 10 uM; type: functional; settings: read-out: GI
NCI-H23 = test: Cytotoxicity against human NCI-H23 cells assessed as growth inhibition at 10 uM; type: functional; settings: read-out: GI
SF-539 = test: Cytotoxicity against human SF539 cells assessed as growth inhibition at 10 uM; type: functional; settings: read-out: GI
MDA-MB-231 [14] = test: Antiproliferative activity against human MDA-MB-231 cells after 72 hrs by MTT assay; type: functional, cell-based; settings: MDA-MB-231, 72 h
Caenorhabditis elegans [15] = test: Toxicity in L1 stage Caenorhabditis elegans N2 assessed as viability and reproduction at 50 uM; type: organism-based; settings: in vivo
PC-3 = test: Cytotoxicity against human PC3 cells assessed as growth inhibition at 10 uM; type: functional; settings: read-out: GI
SNB-75 = test: Cytotoxicity against human SNB75 cells assessed as growth inhibition at 10 uM; type: functional; settings: read-out: GI
NCI-H460 = test: Cytotoxicity against human NCI-H460 cells assessed as growth inhibition at 10 uM; type: functional; settings: read-out: GI
TK-10 = test: Cytotoxicity against human TK10 cells assessed as growth inhibition at 10 uM; type: functional; settings: read-out: GI
[16] = Cytotoxicity against human OVCAR3 cells assessed as growth inhibition at 10 uM; type: functional; settings: OVCAR-3, read-out: GI
[17] = Cytotoxicity against human OVCAR8 cells assessed as growth inhibition at 10 uM; type: functional; settings: OVCAR-8, read-out: GI
KM12 = test: Cytotoxicity against human KM12 cells assessed as growth inhibition at 10 uM; type: functional; settings: read-out: GI
MDA-MB-231 [18] = test: Antiinvasive activity against human MDA-MB-231 cells assessed as inhibition of cell invasion at 15 uM after 24 hrs by BME Cell invasion assay kit; type: functional
786-0 = test: Cytotoxicity against human 786-0 cells assessed as growth inhibition at 10 uM; type: functional; settings: read-out: GI
SR = test: Cytotoxicity against human SR cells assessed as growth inhibition at 10 uM; type: functional; settings: read-out: GI
HOP-62 = test: Cytotoxicity against human HOP62 cells assessed as growth inhibition at 10 uM; type: functional; settings: read-out: GI
[19] = Cytotoxicity against human HCT15 cells assessed as growth inhibition at 10 uM; type: functional; settings: HCT-15, read-out: GI
MDA-MB-435 = test: Cytotoxicity against human MDA-MB-435 cells assessed as growth inhibition at 10 uM; type: functional; settings: read-out: GI
M14 = test: Cytotoxicity against human M14 cells assessed as growth inhibition at 10 uM; type: functional; settings: read-out: GI

C=C(C)[C@H]1O[C@H]2CC[C@@]3(C)[C@@](O)(CC[C@H]4[C@@H]5OC(C)(C)[C@H]6C[C@@H]7C(=C)Cc8ccc9[nH]c(c5c9c8[C@@]76O)[C@@]43C)[C@]23O[C@@H]3[C@H]1O
inhibition of growth at 10 µM [1]: 104% | inhibition of growth at 10 µM (Malme-3M): 98.5% | Activity (Caenorhabditis elegans [2]): Non-toxic | inhibition of growth at 10 µM [3]: 109% | inhibition of growth at 10 µM [4]: 72.5% | inhibition of growth at 10 µM (SK-MEL-2): 96.4% | inhibition of growth at 10 µM [5]: 92.2% | inhibition of growth at 10 µM (MDA-MB-231 [6]): 101% | inhibition of growth at 10 µM (ACHN): 101% | IC50 (MCF7 [7]): 17.5 µM | inhibition of growth at 10 µM (K562): 76.9% | inhibition of growth at 10 µM (RXF 393): 95% | inhibition of growth at 10 µM (SW-620): 106% | inhibition of growth at 10 µM (HT-29): 90.6% | inhibition of growth at 10 µM (SNB-19): 101% | inhibition of growth at 10 µM (HCC 2998): 104% | inhibition of growth at 10 µM [8]: 109% | inhibition of growth at 10 µM (MCF7 [9]): 100% | inhibition of growth at 10 µM (HL-60(TB)): 101% | inhibition of growth at 10 µM (U-251): 99% | inhibition of growth at 10 µM [10]: 115% | inhibition of growth at 10 µM (T47D): 94.8% | inhibition of growth at 10 µM (COLO 205): 106% | inhibition of growth at 10 µM (CAKI-1): 107% | inhibition of growth at 10 µM [11]: 97.1% | inhibition of growth at 10 µM (SK-MEL-28): 110% | inhibition of growth at 10 µM (NCI-H522): 86% | inhibition of growth at 10 µM (SK-MEL-5): 104% | inhibition of growth at 10 µM (IGROV-1): 89.7% | inhibition of growth at 10 µM (SN12C): 99.2% | inhibition of growth at 10 µM [12]: 101% | IC50 (MDA-MB-231 [13]): 20.3 µM | inhibition of growth at 10 µM (LOX IMVI): 105% | inhibition of growth at 10 µM (RPMI-8226): 72.5% | inhibition of growth at 10 µM (BT-549): 101% | inhibition of growth at 10 µM (CCRF-CEM): 68% | inhibition of growth at 10 µM (NCI-H226): 98.2% | inhibition of growth at 10 µM (NCI-H322M): 99.4% | inhibition of growth at 10 µM (MDA-MB-468): 96.6% | inhibition of growth at 10 µM (A549): 92.6% | inhibition of growth at 10 µM (DU-145): 100% | inhibition of growth at 10 µM (MOLT-4): 78% | inhibition of growth at 10 µM (SF-268): 88.9% | inhibition of growth at 10 µM (SK-OV-3): 103% | inhibition of growth at 10 µM (HCT-116): 92.4% | inhibition of growth at 10 µM (NCI-H23): 117% | inhibition of growth at 10 µM (SF-539): 90.7% | IC50 (MDA-MB-231 [14]): 25.4 µM | Activity (Caenorhabditis elegans [15]): Non-toxic | inhibition of growth at 10 µM (PC-3): 82.9% | inhibition of growth at 10 µM (SNB-75): 84.4% | inhibition of growth at 10 µM (NCI-H460): 100% | inhibition of growth at 10 µM (TK-10): 107% | inhibition of growth at 10 µM [16]: 111% | inhibition of growth at 10 µM [17]: 96.9% | inhibition of growth at 10 µM (KM12): 110% | inhibition (MDA-MB-231 [18]): inactive | inhibition of growth at 10 µM (786-0): 96.2% | inhibition of growth at 10 µM (SR): 91.9% | inhibition of growth at 10 µM (HOP-62): 99.2% | inhibition of growth at 10 µM [19]: 98.9% | inhibition of growth at 10 µM (MDA-MB-435): 106% | inhibition of growth at 10 µM (M14): 100%
